Measured values taken from patent publication EP0755931A1, “Dihydropyridine and pyridine derivatives and process for their preparation” (priority 1995, dated 1997).

Each compound was assayed against T1, human placental aromatase (Homo sapiens, UniProt P11511) (assay: Inhibition of human placental aromatase (in vitro test of Thompson and Siiteri, 3H2O release from [1β-3H]androstenedione)). Conditions: human placental microsomal fraction as enzyme source; compounds incubated for 15 min at 37°C with 50 nM [1β-3H]androstenedione in the presence of NADPH.
T1 construct: utilizes the human placental microsomal fraction as enzyme source; from tissue; host or cells: human placenta, microsomal fraction
T1 sequence (P11511 1-503): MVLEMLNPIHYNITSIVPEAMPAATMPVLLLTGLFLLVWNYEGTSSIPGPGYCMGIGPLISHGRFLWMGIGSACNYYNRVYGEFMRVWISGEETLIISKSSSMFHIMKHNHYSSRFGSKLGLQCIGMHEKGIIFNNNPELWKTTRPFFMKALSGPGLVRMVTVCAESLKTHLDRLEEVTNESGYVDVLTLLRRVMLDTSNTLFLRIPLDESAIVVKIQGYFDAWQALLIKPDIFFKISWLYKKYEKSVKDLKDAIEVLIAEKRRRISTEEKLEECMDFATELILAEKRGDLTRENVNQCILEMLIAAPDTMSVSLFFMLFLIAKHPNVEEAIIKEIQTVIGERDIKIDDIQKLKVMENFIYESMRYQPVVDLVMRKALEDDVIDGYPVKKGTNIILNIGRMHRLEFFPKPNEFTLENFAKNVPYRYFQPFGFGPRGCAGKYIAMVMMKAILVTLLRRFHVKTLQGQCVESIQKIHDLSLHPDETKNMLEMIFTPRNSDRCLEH
Format: biochemical
Procedure: Estrogens are also involved in the pathogenesis of benign prostatic hyperplasia. Endogenous estrogens are ultimately formed from either androstenedione or testosterone as immediate precursors. The reaction of central importance is the aromatization of the steroidic ring A, which is performed by the enzyme aromatase. […] In this test the aromatization rate of androstenedione into estrone was evaluated by incubating (1β-^3H) androstenedione (50 nM) in the presence of NADPH with the enzyme preparation and by measuring the amount of^3H2O formed during 15 min incubation at 37°C.

SMILES | IC50 [nM]
CC1=C(C#N)C(c2cccc(-n3ccnc3)c2)C(C#N)=C(C)N1 [FCE 28718, 4-(3-1H-imidazol-1-yl-phenyl)-2,6-dimethyl-1,4-dihydropyridine-3,5-dicarbonitrile] | 1.7
CC1=C(C#N)C(c2cccc(-n3cncn3)c2)C(C#N)=C(C)N1 [FCE 29138, 4-[3-(1,2,4)triazol-1-yl-phenyl]-2,6-dimethyl-1,4-dihydropyridine-3,5-dicarbonitrile] | 25
CCOC(=O)C1=C(C)NC(C)=C(C#N)C1c1cccc(-n2ccnc2)c1 (racemic) [FCE 29013, 4-(3-1H-imidazol-1-yl-phenyl)-2,6-dimethyl-1,4-dihydropyridine-3-carbonitrile-5-carboxylic acid ethyl ester] | 1.5
Cc1nc(C)c(C#N)c(-c2cccc(-n3ccnc3)c2)c1C#N [FCE 28717, 4-(3-1H-imidazol-1-yl-phenyl)-2,6-dimethylpyridine-3,5-dicarbonitrile] | 12
